Measured values: article PMC4114533, “Synthesis, Anti-tubulin and Antiproliferative SAR of Steroidomimetic Dihydroisoquinolinones” (Chemmedchem, 2014)

Experiments:
[1] = test system: DU-145 human prostate cancer cells; assay: Antiproliferative assay (WST-1, 96 h), DU-145; format: cell-based; settings: for GI50: Homo sapiens, DU-145 cells, 96 h, WST-1, mean of three determinations; for antiproliferative activity (in words): in vitro antiproliferative activity, result in words
Method: (§1) Cell lines: DU-145 (brain metastasis carcinoma of the prostate) and MDA MB-231 (metastatic pleural effusion of breast adenocarcinoma) established human cell lines were obtained from ATCC Global Bioresource Center. Cells were maintained in a 5 % CO2 humidified atmosphere at 37 °C in RPMI-1640 medium, supplemented with 10 % fetal bovine serum, penicillin, (100 U mL^−1), and streptomycin (0.1 mg mL^−1). The effect of drugs on tubule formation was assessed using an angiogenesis kit (TCS-Cellworks).
(§2) Antiproliferative assays: DU-145 and MDA MB-231 cells were seeded into 96-well microtitre plates (5000 cells per well) and treated with compound (10^−9–10^−4 M) or with vehicle control. At 96 h post-treatment, live cell counts were determined by WST-1 cell proliferation assay (Roche, Penzberg, Germany), as per the manufacturer’s instructions. Viability results were expressed as a percentage of mean control values resulting in the calculation of the 50 % growth inhibition (GI50). All experiments were performed in triplicate.

[2] = test system: MDA MB-231 human breast cancer cells; assay: Antiproliferative assay (WST-1, 96 h), MDA MB-231; format: cell-based; settings: MDA MB-231 cells, WST-1, mean of three determinations
Method: as §1, §2

| Compound | GI50 [1] [µM] | melting point [°C] | GI50 [2] [µM] | antiproliferative activity (in words) [1] |
| --- | --- | --- | --- | --- |
| COc1cccc(CN2CCc3cc(OS(N)(=O)=O)c(OC)cc3C2=O)c1 [9 b, 7-Methoxy-2-(3-methoxybenzyl)-6-sulfamoyloxy-3,4-dihydroisoquinolin-1(2H)-one] | > 100 | 139 to 140 | – | – |
| COc1ccc(CN2CCc3cc(OS(N)(=O)=O)c(OC)cc3C2=O)cc1 [9 c, 7-Methoxy-2-(4-methoxybenzyl)-6-sulfamoyloxy-3,4-dihydroisoquinolin-1(2H)-one] | > 100 | – | – | – |
| COc1cc(CN2CCc3cc(OS(N)(=O)=O)c(OC)cc3C2=O)cc(OC)c1 [9 d, 7-Methoxy-2-(3,5-dimethoxybenzyl)-6-sulfamoyloxy-3,4-dihydroisoquinolin-1(2H)-one] | > 100 | – | – | – |
| COc1cc2c(cc1OS(N)(=O)=O)CCN(Cc1cc(OC)c(OC)c(OC)c1)C2=O [9 e, 7-Methoxy-6-sulfamoyloxy-2-(3,4,5-trimethoxybenzyl)-3,4-dihydroisoquinolin-1(2H)-one] | > 100 | – | – | – |
| COc1cc2c(cc1OCc1ccccc1)CCN(S(=O)(=O)c1ccccc1OC)C2=O [10 a, 6-Benzyloxy-7-methoxy-2-((2-methoxyphenyl)sulfonyl)-3,4-dihydroisoquinolin-1(2H)-one] | > 100 | – | > 100 | – |
| COc1cccc(S(=O)(=O)N2CCc3cc(OCc4ccccc4)c(OC)cc3C2=O)c1 [10 b, 6-Benzyloxy-7-methoxy-2-((3-methoxyphenyl)sulfonyl)-3,4-dihydroisoquinolin-1(2H)-one] | > 100 | – | > 100 | – |
| COc1cc2c(cc1OCc1ccccc1)CCN(S(=O)(=O)c1cccc(Cl)c1)C2=O [10 d, 6-Benzyloxy-7-methoxy-2-((3-chlorophenyl)sulfonyl)-3,4-dihydroisoquinolin-1(2H)-one] | > 100 | – | > 100 | – |
| COc1cc2c(cc1O)CCN(S(=O)(=O)c1ccccc1OC)C2=O [11 a, 6-Hydroxy-7-methoxy-2-((2-methoxyphenyl)sulfonyl)-3,4-dihydroisoquinolin-1(2H)-one] | > 100 | – | 13.4 | – |
| COc1cccc(S(=O)(=O)N2CCc3cc(O)c(OC)cc3C2=O)c1 [11 b, 6-Hydroxy-7-methoxy-2-((3-methoxyphenyl)sulfonyl)-3,4-dihydroisoquinolin-1(2H)-one] | > 100 | – | > 100 | – |
| COc1ccc(S(=O)(=O)N2CCc3cc(OS(N)(=O)=O)c(OC)cc3C2=O)cc1 [12 c, 7-Methoxy-2-((4-methoxyphenyl)sulfonyl)-6-(sulfamoyloxy)-3,4-dihydroisoquinolin-1(2H)-one] | > 100 | – | > 100 | – |
| COc1cc2c(cc1OCc1ccccc1)CCN(C(=O)c1ccccc1OC)C2=O [15 a, 6-Benzyloxy-2-(2-methoxybenzoyl)-7-methoxy-3,4-dihydroisoquinolin-1(2H)-one] | > 100 | – | 43.6 | – |
| COc1cc2c(cc1OCc1ccccc1)CCN(C(=O)c1cccc(C#N)c1)C2=O [15 c, 6-Benzyloxy-2-(3-cyanobenzoyl)-7-methoxy-3,4-dihydroisoquinolin-1(2H)-one] | > 100 | – | > 100 | – |
| COc1ccc(C(=O)N2CCc3cc(OCc4ccccc4)c(OC)cc3C2=O)cc1 [15 d, 6-Benzyloxy-2-(4-methoxybenzoyl)-7-methoxy-3,4-dihydroisoquinolin-1(2H)-one] | > 100 | – | – | – |
| COc1ccc(C(=O)N2CCc3cc(OCc4ccccc4)c(OC)cc3C2=O)cc1OC [15 e, 6-Benzyloxy-2-(3,4-dimethoxybenzoyl)-7-methoxy-3,4-dihydroisoquinolin-1(2H)-one] | > 100 | – | – | – |
| COc1cc(OC)cc(C(=O)N2CCc3cc(OCc4ccccc4)c(OC)cc3C2=O)c1 [15 f, 6-Benzyloxy-2-(3,5-dimethoxybenzoyl)-7-methoxy-3,4-dihydroisoquinolin-1(2H)-one] | > 100 | – | – | – |
| COc1cc2c(cc1OCc1ccccc1)CCN(C(=O)c1cc(OC)c(OC)c(OC)c1)C2=O [15 g, 6-Benzyloxy-7-methoxy-2-(3,4,5-trimethoxybenzoyl)-3,4-dihydroisoquinolin-1(2H)-one] | > 100 | – | 77.5 | – |
| COc1ccc(C(=O)N2CCc3cc(O)c(OC)cc3C2=O)cc1 [16 d, 6-Hydroxy-2-(4-methoxybenzoyl)-7-methoxy-3,4-dihydroisoquinolin-1(2H)-one] | > 100 | – | – | inactive |
| COc1cc2c(cc1O)CCN(C(=O)c1ccc(OC)c(OC)c1)C2 [18 a, 2-(3,4-Dimethoxybenzoyl)-6-hydroxy-7-methoxy-1,2,3,4-tetrahydroisoquinoline] | > 100 | – | – | completely inactive |
| COc1ccc(C(=O)N2CCc3cc(OS(N)(=O)=O)c(OC)cc3C2)cc1OC [19 a, 2-(3,4-Dimethoxybenzoyl)-7-methoxy-6-sulfamoyloxy-1,2,3,4-tetrahydroisoquinoline] | > 100 | – | – | completely inactive |

Continued, in another order:

| GI50 [1] [µM] | melting point [°C] | GI50 [2] [µM] | Compound | antiproliferative activity (in words) [1] |
| --- | --- | --- | --- | --- |
| > 100 | – | – | COc1cc(CN2CCc3cc(OCc4ccccc4)c(OC)cc3C2=O)cc(OC)c1 [7 d, 6-Benzyloxy-7-methoxy-2-(3,5-dimethoxybenzyl)-3,4-dihydroisoquinolin-1(2H)-one] | – |
| > 100 | – | – | COc1cc2c(cc1OCc1ccccc1)CCN(Cc1cc(OC)c(OC)c(OC)c1)C2=O [7 e, 6-Benzyloxy-7-methoxy-2-(3,4,5-trimethoxybenzyl)-3,4-dihydroisoquinolin-1(2H)-one] | – |
| > 100 | – | – | COc1cc2c(cc1O)CCN(Cc1ccccc1OC)C2=O [8 a, 6-Hydroxy-7-methoxy-2-(2-methoxybenzyl)-3,4-dihydroisoquinolin-1(2H)-one] | – |
| > 100 | 181 to 182 | – | COc1cccc(CN2CCc3cc(O)c(OC)cc3C2=O)c1 [8 b, 6-Hydroxy-7-methoxy-2-(3-methoxybenzyl)-3,4-dihydroisoquinolin-1(2H)-one] | – |
| > 100 | 171 to 172 | – | COc1ccc(CN2CCc3cc(O)c(OC)cc3C2=O)cc1 [8 c, 6-Hydroxy-7-methoxy-2-(4-methoxybenzyl)-3,4-dihydroisoquinolin-1(2H)-one] | – |
| > 100 | – | – | COc1cc(CN2CCc3cc(O)c(OC)cc3C2=O)cc(OC)c1 [8 d, 6-Hydroxy-7-methoxy-2-(3,5-dimethoxybenzyl)-3,4-dihydroisoquinolin-1(2H)-one] | – |
| > 100 | – | – | COc1cc2c(cc1O)CCN(Cc1cc(OC)c(OC)c(OC)c1)C2=O [8 e, 6-Hydroxy-7-methoxy-2-(3,4,5-trimethoxybenzyl)-3,4-dihydroisoquinolin-1(2H)-one] | – |
| > 100 | – | – | COc1ccccc1CN1CCc2cc(OS(N)(=O)=O)c(OC)cc2C1=O [9 a, 7-Methoxy-2-(2-methoxybenzyl)-6-sulfamoyloxy-3,4-dihydroisoquinolin-1(2H)-one] | – |
| 26.7 | – | – | COc1ccc(C(=O)N2CCc3cc(OCc4ccccc4)c(OC)cc3C2)cc1OC [14 e, 6-Benzyloxy-2-(3,4-dimethoxybenzoyl)-7-methoxy-1,2,3,4-tetra-hydroisoquinoline] | – |
| 46.8 | – | – | COc1cc(OC)cc(C(=O)N2CCc3cc(OCc4ccccc4)c(OC)cc3C2)c1 [14 f, 6-Benzyloxy-2-(3,5-dimethoxybenzoyl)-7-methoxy-1,2,3,4-tetra-hydroisoquinoline] | – |
| 62.7 | – | 18.9 | COc1cc2c(cc1OCc1ccccc1)CCN(C(=O)c1cc(OC)c(OC)c(OC)c1)C2 [14 g, 6-Benzyloxy-7-methoxy-2-(3,4,5-trimethoxybenzoyl)-1,2,3,4-tetrahydroisoquinoline] | – |
| 6.42 | – | 5.6 | COc1cc2c(cc1O)CCN(C(=O)c1ccccc1OC)C2=O [16 a, 6-Hydroxy-2-(2-methoxybenzoyl)-7-methoxy-3,4-dihydroisoquinolin-1(2H)-one] | – |
| 3.63 | – | 1.89 | COc1cccc(C(=O)N2CCc3cc(O)c(OC)cc3C2=O)c1 [16 b, 6-Hydroxy-2-(3-methoxybenzoyl)-7-methoxy-3,4-dihydroisoquinolin-1(2H)-one] | – |
| 70 | – | 37.4 | COc1cc2c(cc1O)CCN(C(=O)c1cccc(C#N)c1)C2=O [16 c, 2-(3-Cyanobenzoyl)-6-hydroxy-7-methoxy-3,4-dihydroisoquinolin-1(2H)-one] | – |
| 9.1 | – | 7.1 | COc1cc2c(cc1OS(N)(=O)=O)CCN(C(=O)c1ccccc1OC)C2=O [17 a, 2-(2-Methoxybenzoyl)-7-methoxy-6-sulfamoyloxy-3,4-dihydroisoquinolin-1(2H)-one] | – |
| 5.3 | – | 3.5 | COc1cccc(C(=O)N2CCc3cc(OS(N)(=O)=O)c(OC)cc3C2=O)c1 [17 b, 2-(3-Methoxybenzoyl)-7-methoxy-6-sulfamoyloxy-3,4-dihydroisoquinolin-1(2H)-one] | – |
| 3.4 | – | 2.08 | COc1ccc(C(=O)N2CCc3cc(OS(N)(=O)=O)c(OC)cc3C2=O)cc1OC [17 e, 2-(3,4-Dimethoxybenzoyl)-7-methoxy-6-sulfamoyloxy-3,4-dihydroisoquinolin-1(2H)-one] | – |
| 6.4 | – | – | COc1cc(OC)cc(C(=O)N2CCc3cc(O)c(OC)cc3C2)c1 [18 b, 2-(3,5-Dimethoxybenzoyl)-6-hydroxy-7-methoxy-1,2,3,4-tetrahydroisoquinoline] | – |
| 9 | – | – | COc1cc(OC)cc(C(=O)N2CCc3cc(OS(N)(=O)=O)c(OC)cc3C2)c1 [19 b, 2-(3,5-Dimethoxybenzoyl)-7-methoxy-6-sulfamoyloxy-1,2,3,4-tetrahydroisoquinoline] | – |
